The results in this text go back to patent publication US20250101013A1, “FUNCTIONALIZED AMINOTHIAZOLES” (LEADXPRO AG, priority 2022, published 2025).

Common to all, as to settings: *Measured by radioligand binding
For one assay, the target named is human A2B receptor (Homo sapiens (Human), UniProt P29275). The experiment in a line: Radioligand binding assay, A2B ([3H]-DPCPX, HEK293 membranes). The method, then:
(§1) A filtration binding assay was performed for adenosine receptors A1, A2A, A2B and A3. Radioligand binding competition assay was done in duplicate in the wells of a 96-well plate (Master Block, Greiner, 786201) containing binding buffer, receptor membrane extracts, a fixed concentration of tracer, and test compound at increasing concentrations. In order to eliminate effect of buffer components, binding buffer was the same for all four receptors and contained: 50 mM Tris-HCl pH 7.4, 5 mM MgCl, 1 mM EDTA, 150 mM NaCl, 0.1% Na-azide, and 5 U/ml adenosine-deaminase. Nonspecific binding was minimized by co-incubation with 200-fold excess of cold competitor. In all radioligand binding experiments, the samples were incubated in a final volume of 0.1 ml of binding buffer for 60 minutes at 25° C. and then filtered over Unifilter plates (Perkin Elmer) pre-treated for 2 hours to limit tracer non-specific binding. Filters were washed five times with 0.5 ml of ice-cold washing buffer (50 mM Tris-HCl pH 7.4, 5 mM MgCl, 1 mM EDTA), and 50 μL of Microscint 20 (Perkin Elmer) were added to each filter. The plates were incubated 15 min at room temperature on an orbital shaker and then counted with a TopCount™ for 1 min/well.
For A2B receptor, the assay was carried with [3H]-DPCPX and membranes prepared from HEK293 cells transfected with human A2B receptor (Euroscreen FAST-003B).

The target of another assay is human A1 receptor (Homo sapiens (Human), UniProt P30542). The experiment in a line: Radioligand binding assay, A1 ([3H]-DPCPX, CHO-K1 membranes). How it is done: as §1
human A1 receptor, sequence (P30542 whole entry): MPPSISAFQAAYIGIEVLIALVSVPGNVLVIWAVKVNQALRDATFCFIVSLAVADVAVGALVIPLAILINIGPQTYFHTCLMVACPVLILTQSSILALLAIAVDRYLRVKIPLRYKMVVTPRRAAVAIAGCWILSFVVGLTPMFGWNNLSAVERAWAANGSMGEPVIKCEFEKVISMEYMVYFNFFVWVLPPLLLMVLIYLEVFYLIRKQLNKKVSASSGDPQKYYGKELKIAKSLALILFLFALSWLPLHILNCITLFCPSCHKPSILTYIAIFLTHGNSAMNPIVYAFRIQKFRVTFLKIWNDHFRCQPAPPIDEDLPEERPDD
For A1 receptor, the assay was performed with [3H]-DPCPX and membranes from CHO-Kl cells transfected with human A1 receptor (Euroscreen FAST-001B).

The next assay addresses human A3 receptor (Homo sapiens (Human), UniProt P0DMS8). The assay can be described thus: Radioligand binding assay, A3 ([125I]-MECA, CHO-K1 membranes). The method, then:
as §1
For A3 receptor, the assay was carried out with [125IJ-MECA and membranes from CHO-Kl cells transfected with human A3 receptor (Euroscreen FAST-004B).

Another assay addresses human A2A receptor (Homo sapiens (Human), UniProt P29274). The experiment in a line: Radioligand binding assay, A2A ([3H]-NECA, HEK293 membranes). How it is done:
as §1
For A2A receptor, the assay was performed with [3H-NECA and membranes from HEK293 cells transfected with human A2A receptor (Euroscreen FAST-002B).

human A3 receptor, sequence (P0DMS8 whole entry): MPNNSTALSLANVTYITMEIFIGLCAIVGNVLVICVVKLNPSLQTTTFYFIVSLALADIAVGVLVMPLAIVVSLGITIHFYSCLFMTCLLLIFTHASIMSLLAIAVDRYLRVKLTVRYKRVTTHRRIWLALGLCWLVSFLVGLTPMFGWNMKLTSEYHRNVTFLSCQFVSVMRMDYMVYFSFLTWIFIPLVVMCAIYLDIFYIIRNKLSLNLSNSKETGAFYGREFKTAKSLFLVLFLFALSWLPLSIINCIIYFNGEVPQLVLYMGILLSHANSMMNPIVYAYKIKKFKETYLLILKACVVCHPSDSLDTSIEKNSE
human A2A receptor, sequence (P29274 whole entry): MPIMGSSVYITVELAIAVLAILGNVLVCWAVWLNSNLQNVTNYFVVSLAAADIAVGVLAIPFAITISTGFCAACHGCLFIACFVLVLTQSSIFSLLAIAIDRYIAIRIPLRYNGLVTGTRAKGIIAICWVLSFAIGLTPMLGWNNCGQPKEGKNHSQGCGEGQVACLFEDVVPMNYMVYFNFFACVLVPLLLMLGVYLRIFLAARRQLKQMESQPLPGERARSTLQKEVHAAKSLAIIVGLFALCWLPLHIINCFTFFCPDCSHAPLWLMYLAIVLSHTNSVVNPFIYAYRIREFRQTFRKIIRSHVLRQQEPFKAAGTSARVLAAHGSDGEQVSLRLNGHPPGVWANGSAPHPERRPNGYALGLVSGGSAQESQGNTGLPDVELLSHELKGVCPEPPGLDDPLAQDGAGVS
human A2B receptor, sequence (P29275 whole entry): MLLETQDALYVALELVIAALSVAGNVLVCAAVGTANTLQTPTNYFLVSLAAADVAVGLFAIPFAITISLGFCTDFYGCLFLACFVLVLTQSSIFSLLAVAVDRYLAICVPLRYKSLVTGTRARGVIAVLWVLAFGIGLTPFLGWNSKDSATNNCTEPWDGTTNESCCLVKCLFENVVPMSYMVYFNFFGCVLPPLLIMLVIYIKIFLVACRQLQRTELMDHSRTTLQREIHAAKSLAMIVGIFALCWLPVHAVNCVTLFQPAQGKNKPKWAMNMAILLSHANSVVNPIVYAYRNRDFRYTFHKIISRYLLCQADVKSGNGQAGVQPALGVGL

Regarding `Fc1ccccc1-c1nc(Nc2n[nH]c(C3CCC3)n2)sc1-c1ccncc1F` [Compound 1, 5-Cyclobutyl-N-[4-(2-fluorophenyl)-5-(3-fluoropyridin-4-yl)-1,3-thiazol-2-yl]-1H-1,2,4-triazol-3-amine], the EC50 was 2.2 nM at human A2B receptor, less than 5 nM on human A1 receptor, greater than 10000 nM at human A3 receptor and greater than 10000 nM at human A2A receptor.
